Measurements as given in ChEMBL document CHEMBL1201862, “PubChem BioAssay data set” (2004).
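Where inhibition never reached the appropriate level, the endpoint shown equals the highest concentration tested. Otherwise, values were interpolated linearly from a five-concentration, 48-hour dose response in 96-well plates. GI50 = concentration required for 50% inhibition of growth.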 Activity calls are given as the source filed them. Rule as the data show it: active = GI50 up to about 1.1 µM and inactive = higher.

Columns and labels:
Experiment in all cases: DTP human tumour cell line panel, 48 h
[1] = tested on: SK-MEL-2
[2] = tested on: SF-268
[3] = tested on: SNB-75
[4] = tested on: SK-MEL-28
[5] = tested on: UACC-62
[6] = tested on: MOLT-4
[7] = tested on: IGROV-1
[8] = tested on: HT-29
[9] = tested on: CCRF-CEM
[10] = tested on: OVCAR-8
[11] = tested on: UO-31
[12] = tested on: OVCAR-4
[13] = tested on: HOP-62
[14] = tested on: NCI-H460
[15] = tested on: SNB-19
[16] = tested on: SK-MEL-5
[17] = tested on: SF-539
[18] = tested on: LXFL 529
[19] = tested on: SW-620
[20] = tested on: KM12
[21] = tested on: XF498
[22] = tested on: SK-OV-3
[23] = tested on: TK-10
[24] = tested on: HCT-116
[25] = tested on: SN12C
[26] = tested on: HOP-92
[27] = tested on: OVCAR-3
[28] = tested on: RXF 393
[29] = tested on: RPMI-8226
[30] = tested on: HL-60
[31] = tested on: UACC-257
[32] = tested on: EKVX
[33] = tested on: M14
[34] = tested on: M19-MEL
[35] = tested on: Malme-3M
[36] = tested on: DLD-1
[37] = tested on: U-251
[38] = tested on: KM-20L2
[39] = tested on: NCI-H522
[40] = tested on: A549
[41] = tested on: COLO 205
[42] = tested on: NCI-H23
[43] = tested on: OVCAR-5
[44] = tested on: K562
[45] = tested on: SR
[46] = tested on: SF-295
[47] = tested on: DMS-273
[48] = tested on: ACHN
[49] = tested on: 786-0
[50] = tested on: HCC 2998
[51] = tested on: SNB-78
[52] = tested on: LOX IMVI
[53] = tested on: CAKI-1
[54] = tested on: NCI-H226
[55] = tested on: DMS-114
[56] = tested on: A498
[57] = tested on: HCT-15

In the case of O=C1C(Cl)N(c2c(Cl)cccc2Cl)C1c1c[nH]c2ccccc12 (centres undefined), the GI50 [1] is reported as > 100 µM (inactive), the GI50 [2] is reported as > 100 µM (inactive) and the GI50 [3] is reported as > 100 µM (inactive). The GI50 [4] was > 100 µM (inactive), the GI50 [5] was > 100 µM (inactive) and the GI50 [6] was > 100 µM (inactive). The GI50 [7] was > 100 µM (inactive), the GI50 [8] was > 100 µM (inactive) and the GI50 [9] was > 100 µM (inactive). For the same compound, the GI50 [10] was > 100 µM (inactive), the GI50 [11] was > 100 µM (inactive) and the GI50 [12] was > 100 µM (inactive). For the same compound, the GI50 [13] was > 100 µM (inactive), the GI50 [14] was > 100 µM (inactive) and the GI50 [15] was > 100 µM (inactive). The GI50 [16] was > 100 µM (inactive), the GI50 [17] was > 100 µM (inactive) and the GI50 [18] was > 100 µM (inactive). For the same compound, the GI50 [19] was > 100 µM (inactive), the GI50 [20] was > 100 µM (inactive) and the GI50 [21] was > 100 µM (inactive). For the same compound, the GI50 [22] was > 100 µM (inactive), the GI50 [23] was > 100 µM (inactive) and the GI50 [24] was > 100 µM (inactive). For the same compound, the GI50 [25] was > 100 µM (inactive), the GI50 [26] was > 100 µM (inactive) and the GI50 [27] was > 100 µM (inactive). For the same compound, the GI50 [28] was > 100 µM (inactive), the GI50 [29] was > 100 µM (inactive) and the GI50 [30] was > 100 µM (inactive). For the same compound, the GI50 [31] was > 100 µM (inactive), the GI50 [32] was > 100 µM (inactive) and the GI50 [33] was > 100 µM (inactive). The GI50 [34] was > 100 µM (inactive), the GI50 [35] was 36.3 µM (inactive) and the GI50 [36] was > 100 µM (inactive). For the same compound, the GI50 [37] was > 100 µM (inactive), the GI50 [38] was > 100 µM (inactive) and the GI50 [39] was > 100 µM (inactive). For the same compound, the GI50 [40] was > 100 µM (inactive), the GI50 [41] was > 100 µM (inactive) and the GI50 [42] was > 100 µM (inactive). The GI50 [43] was > 100 µM (inactive), the GI50 [44] was > 100 µM (inactive) and the GI50 [45] was > 100 µM (inactive). The GI50 [46] was > 100 µM (inactive).

With NC(=O)c1ncn(C2OC(CO)C(O)C2O)c1NC(=S)NC(=O)c1ccccc1 (centres undefined) the GI50 [47] was > 100 µM (inactive), the GI50 [1] was > 100 µM (inactive) and the GI50 [2] was > 100 µM (inactive). For the same compound, the GI50 [48] was > 100 µM (inactive), the GI50 [49] was > 100 µM (inactive) and the GI50 [3] was > 100 µM (inactive). For the same compound, the GI50 [4] was > 100 µM (inactive), the GI50 [5] was > 100 µM (inactive) and the GI50 [6] was > 100 µM (inactive). The GI50 [7] was > 100 µM (inactive), the GI50 [8] was > 100 µM (inactive) and the GI50 [9] was > 100 µM (inactive). The GI50 [50] was > 100 µM (inactive), the GI50 [10] was > 100 µM (inactive) and the GI50 [11] was > 100 µM (inactive). For the same compound, the GI50 [12] was > 100 µM (inactive), the GI50 [13] was > 100 µM (inactive) and the GI50 [14] was > 100 µM (inactive). For the same compound, the GI50 [15] was > 100 µM (inactive), the GI50 [16] was > 100 µM (inactive) and the GI50 [17] was > 100 µM (inactive). For the same compound, the GI50 [18] was > 100 µM (inactive), the GI50 [19] was > 100 µM (inactive) and the GI50 [20] was > 100 µM (inactive). The GI50 [51] was > 100 µM (inactive), the GI50 [22] was > 100 µM (inactive) and the GI50 [52] was > 100 µM (inactive). The GI50 [53] was > 100 µM (inactive), the GI50 [54] was > 100 µM (inactive) and the GI50 [23] was > 100 µM (inactive). For the same compound, the GI50 [24] was > 100 µM (inactive), the GI50 [25] was > 100 µM (inactive) and the GI50 [26] was > 100 µM (inactive). For the same compound, the GI50 [27] was > 100 µM (inactive), the GI50 [28] was > 100 µM (inactive) and the GI50 [29] was > 100 µM (inactive). For the same compound, the GI50 [30] was > 100 µM (inactive), the GI50 [55] was > 100 µM (inactive) and the GI50 [31] was > 100 µM (inactive). The GI50 [32] was > 100 µM (inactive), the GI50 [33] was > 100 µM (inactive) and the GI50 [34] was > 100 µM (inactive). For the same compound, the GI50 [35] was > 100 µM (inactive), the GI50 [36] was > 100 µM (inactive) and the GI50 [56] was > 100 µM (inactive). The GI50 [37] was > 100 µM (inactive), the GI50 [38] was > 100 µM (inactive) and the GI50 [39] was > 100 µM (inactive). The GI50 [40] was > 100 µM (inactive), the GI50 [41] was > 100 µM (inactive) and the GI50 [42] was > 100 µM (inactive). For the same compound, the GI50 [43] was > 100 µM (inactive), the GI50 [44] was > 100 µM (inactive) and the GI50 [45] was > 100 µM (inactive). The GI50 [46] was > 100 µM (inactive).

For CCN(CC)CC(C(=O)Nc1c(C)cccc1C)/C(C)=N\NC(=O)C[N+](C)(C)C (centres undefined), the GI50 [47] was > 100 µM (inactive), the GI50 [2] was > 100 µM (inactive) and the GI50 [48] was > 100 µM (inactive). The GI50 [49] was > 100 µM (inactive), the GI50 [3] was > 100 µM (inactive) and the GI50 [4] was > 100 µM (inactive). The GI50 [5] was > 100 µM (inactive), the GI50 [6] was > 100 µM (inactive) and the GI50 [7] was > 100 µM (inactive). For the same compound, the GI50 [8] was > 100 µM (inactive), the GI50 [50] was > 100 µM (inactive) and the GI50 [10] was > 100 µM (inactive). The GI50 [11] was > 100 µM (inactive), the GI50 [57] was > 100 µM and the GI50 [12] was > 100 µM (inactive). For the same compound, the GI50 [13] was > 100 µM (inactive), the GI50 [14] was > 100 µM (inactive) and the GI50 [15] was > 100 µM (inactive). The GI50 [16] was > 100 µM (inactive), the GI50 [17] was > 100 µM (inactive) and the GI50 [18] was > 100 µM (inactive). For the same compound, the GI50 [19] was > 100 µM (inactive), the GI50 [20] was > 100 µM (inactive) and the GI50 [51] was > 100 µM (inactive). The GI50 [21] was > 100 µM (inactive), the GI50 [22] was > 100 µM (inactive) and the GI50 [52] was > 100 µM (inactive). The GI50 [53] was > 100 µM (inactive), the GI50 [54] was > 100 µM (inactive) and the GI50 [23] was > 100 µM (inactive). For the same compound, the GI50 [24] was > 100 µM (inactive), the GI50 [25] was > 100 µM (inactive) and the GI50 [26] was > 100 µM (inactive). The GI50 [27] was > 100 µM (inactive), the GI50 [28] was > 100 µM (inactive) and the GI50 [29] was > 100 µM (inactive). For the same compound, the GI50 [30] was > 100 µM (inactive), the GI50 [55] was > 100 µM (inactive) and the GI50 [31] was > 100 µM (inactive). The GI50 [33] was > 100 µM (inactive), the GI50 [34] was > 100 µM (inactive) and the GI50 [35] was > 100 µM (inactive). The GI50 [36] was > 100 µM (inactive), the GI50 [37] was > 100 µM (inactive) and the GI50 [38] was > 100 µM (inactive). For the same compound, the GI50 [39] was > 100 µM (inactive), the GI50 [40] was > 100 µM (inactive) and the GI50 [41] was > 100 µM (inactive). For the same compound, the GI50 [42] was > 100 µM (inactive), the GI50 [43] was > 100 µM (inactive) and the GI50 [44] was > 100 µM (inactive). For the same compound, the GI50 [45] was > 100 µM (inactive) and the GI50 [46] was > 100 µM (inactive).

Cc1cc(-c2ccc(/N=N/c3ccc4c(S(=O)(=O)O)cc(S(=O)(=O)O)c(N)c4c3O)c(C)c2)ccc1/N=N/c1ccc2c(S(=O)(=O)O)cc(S(=O)(=O)O)c(N)c2c1O was tested, and the GI50 [3] was > 100 µM (inactive), the GI50 [5] was > 100 µM (inactive) and the GI50 [6] was > 100 µM (inactive). The GI50 [7] was > 100 µM (inactive), the GI50 [9] was > 100 µM (inactive) and the GI50 [12] was > 63.4 µM (inactive). The GI50 [13] was > 100 µM (inactive), the GI50 [15] was > 100 µM (inactive) and the GI50 [16] was > 100 µM (inactive). The GI50 [20] was > 100 µM (inactive), the GI50 [51] was > 100 µM (inactive) and the GI50 [21] was > 100 µM (inactive). For the same compound, the GI50 [52] was > 100 µM (inactive), the GI50 [24] was > 100 µM (inactive) and the GI50 [26] was > 100 µM (inactive). The GI50 [29] was > 100 µM (inactive), the GI50 [55] was > 100 µM (inactive) and the GI50 [35] was > 100 µM (inactive). The GI50 [36] was > 100 µM (inactive) and the GI50 [41] was > 100 µM (inactive).
